# Test results: ChEMBL document CHEMBL4422610, “HDAC as onco target: Reviewing the synthetic approaches with SAR study of their inhibitors” (Eur J Med Chem, 2018)
# pIC50: −log10 of the molar value.
# Target: T1, Histone deacetylase 1 (Homo sapiens, UniProt Q13547)
# Assay: Inhibition of HDAC1 (unknown origin) using Ac-peptide as substrate preincubated for 15 mins followed by substrate addition and measured after 60 mins by fluorescence assay
# Settings: not given
# T1 sequence (Q13547 whole entry): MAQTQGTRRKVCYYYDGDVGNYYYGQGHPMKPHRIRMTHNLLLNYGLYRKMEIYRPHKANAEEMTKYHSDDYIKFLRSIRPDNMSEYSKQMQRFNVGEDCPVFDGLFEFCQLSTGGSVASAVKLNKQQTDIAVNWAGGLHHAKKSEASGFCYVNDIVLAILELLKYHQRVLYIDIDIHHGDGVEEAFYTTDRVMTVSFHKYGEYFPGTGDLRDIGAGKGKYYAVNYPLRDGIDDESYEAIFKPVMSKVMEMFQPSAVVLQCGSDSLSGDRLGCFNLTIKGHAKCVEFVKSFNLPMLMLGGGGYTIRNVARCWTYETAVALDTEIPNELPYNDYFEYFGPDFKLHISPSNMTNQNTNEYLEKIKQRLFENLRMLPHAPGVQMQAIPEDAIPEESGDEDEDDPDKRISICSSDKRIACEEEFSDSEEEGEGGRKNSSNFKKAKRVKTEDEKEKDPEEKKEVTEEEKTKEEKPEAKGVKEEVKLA
row,SMILES,pIC50
1,COc1ccccc1N1C(=O)CSC1c1cccc(C(=O)NCCCCCC(=O)NO)c1 (stereo unspecified),7.43
2,COc1ccccc1N1C(=O)CSC1c1cccc(NC(=O)CCCCCC(=O)NO)c1 (stereo unspecified),7.77
3,O=C(CCCOc1ccccc1N1C(=O)CSC1c1ccc(Br)s1)NO (stereo unspecified),7.14
4,COc1ccccc1N1C(=O)CSC1c1cccc(NC(=O)CCC(=O)NO)c1 (stereo unspecified),6.46
5,COc1ccccc1N1C(=O)CSC1c1cccc(C(=O)NCCCC(=O)NO)c1 (stereo unspecified),5.31

# Results, then the compound that gave them:
row,pIC50,SMILES
1,7.54,O=C(CCCCCC(=O)Nc1ccccc1N1C(=O)CSC1c1cccc(Br)c1)NO (stereo unspecified)
2,5.73,O=C(CCCOc1ccccc1N1C(=O)CSC1c1cccc(Br)c1)NO (stereo unspecified)
3,7.28,O=C(CCCCCCC(=O)Nc1ccccc1N1C(=O)CSC1c1cccc(Br)c1)NO (stereo unspecified)
4,6.59,O=C(CCCCCOc1ccccc1N1C(=O)CSC1c1cccc(Br)c1)NO (stereo unspecified)
5,7.54,O=C(CCCCCCCOc1ccccc1N1C(=O)CSC1c1cccc(Br)c1)NO (stereo unspecified)
6,7.30,O=C(CCCCCCOc1ccccc1N1C(=O)CSC1c1cccc(Br)c1)NO (stereo unspecified)
7,6.28,O=C(CCCCOc1ccccc1N1C(=O)CSC1c1cccc(Br)c1)NO (stereo unspecified)

# Target: T1, Histone deacetylase 1
# Assay: Inhibition of GST-tagged HDAC1 (unknown origin) expressed in insect cells using poly (Glu, Tyr) 4:1 as substrate measured after 15 mins in presence of [gamma-33P]ATP by Topcount method
# Settings: not given
row,pIC50,SMILES
1,9.10,CCc1n[nH]c(CC)c1CCN1CCCC1c1ccc(/C=C/C(=O)NO)cc1 (stereo unspecified)
2,9.05,O=C(/C=C/c1ccc(C2CCCN2CCc2cnn3ccccc23)cc1)NO (stereo unspecified)
3,8.22,CC(C)c1[nH]c2ccccc2c1C1CCCN(Cc2ccc(/C=C/C(=O)NO)cc2)C1 (stereo unspecified)
4,9.00,O=C(/C=C/c1ccc(C2CCCN2CCc2c(-c3cccnc3)nn3ccccc23)cc1)NO (stereo unspecified)
5,8.22,Cc1[nH]c2ccccc2c1C1CCCN(Cc2ccc(/C=C/C(=O)NO)cc2)C1 (stereo unspecified)
6,9.22,Cc1nn2ccccc2c1CCN1CCCC1c1ccc(/C=C/C(=O)NO)cc1 (stereo unspecified)

# Target: Histone deacetylase (HDAC1 and HDAC2) (Homo sapiens, UniProt Q13547+Q92769)
# Type: cell-based
# Settings: hela
row,IC50 [µM],SMILES
1,0.37,COc1cc(/C=C/C(=O)NO)ccc1OCCCNC(=O)c1ccccc1O

# Target: Histone deacetylase 3 (Homo sapiens, UniProt O15379)
# Assay: Inhibition of HDAC3 (unknown origin)
# Settings: not given
# Sequence of Histone deacetylase 3 (O15379 whole entry): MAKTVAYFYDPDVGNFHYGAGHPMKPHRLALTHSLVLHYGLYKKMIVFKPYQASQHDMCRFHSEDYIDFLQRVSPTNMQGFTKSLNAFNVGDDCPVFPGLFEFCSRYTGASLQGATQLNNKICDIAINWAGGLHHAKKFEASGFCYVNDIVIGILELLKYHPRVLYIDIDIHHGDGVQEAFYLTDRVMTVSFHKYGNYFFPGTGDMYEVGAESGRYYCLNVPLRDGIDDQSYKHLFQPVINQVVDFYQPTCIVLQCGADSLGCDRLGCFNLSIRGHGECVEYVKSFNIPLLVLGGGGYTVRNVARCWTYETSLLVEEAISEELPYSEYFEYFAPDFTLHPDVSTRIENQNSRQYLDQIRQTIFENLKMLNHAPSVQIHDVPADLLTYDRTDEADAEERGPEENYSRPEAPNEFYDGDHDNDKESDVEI
row,pIC50,SMILES
1,6.17,COc1cc(/C=C/C(=O)NO)ccc1OCCCNC(=O)c1ccccc1O

# Target: T2, Protein deacetylase HDAC6 (Homo sapiens, UniProt Q9UBN7)
# T2 sequence (Q9UBN7 whole entry): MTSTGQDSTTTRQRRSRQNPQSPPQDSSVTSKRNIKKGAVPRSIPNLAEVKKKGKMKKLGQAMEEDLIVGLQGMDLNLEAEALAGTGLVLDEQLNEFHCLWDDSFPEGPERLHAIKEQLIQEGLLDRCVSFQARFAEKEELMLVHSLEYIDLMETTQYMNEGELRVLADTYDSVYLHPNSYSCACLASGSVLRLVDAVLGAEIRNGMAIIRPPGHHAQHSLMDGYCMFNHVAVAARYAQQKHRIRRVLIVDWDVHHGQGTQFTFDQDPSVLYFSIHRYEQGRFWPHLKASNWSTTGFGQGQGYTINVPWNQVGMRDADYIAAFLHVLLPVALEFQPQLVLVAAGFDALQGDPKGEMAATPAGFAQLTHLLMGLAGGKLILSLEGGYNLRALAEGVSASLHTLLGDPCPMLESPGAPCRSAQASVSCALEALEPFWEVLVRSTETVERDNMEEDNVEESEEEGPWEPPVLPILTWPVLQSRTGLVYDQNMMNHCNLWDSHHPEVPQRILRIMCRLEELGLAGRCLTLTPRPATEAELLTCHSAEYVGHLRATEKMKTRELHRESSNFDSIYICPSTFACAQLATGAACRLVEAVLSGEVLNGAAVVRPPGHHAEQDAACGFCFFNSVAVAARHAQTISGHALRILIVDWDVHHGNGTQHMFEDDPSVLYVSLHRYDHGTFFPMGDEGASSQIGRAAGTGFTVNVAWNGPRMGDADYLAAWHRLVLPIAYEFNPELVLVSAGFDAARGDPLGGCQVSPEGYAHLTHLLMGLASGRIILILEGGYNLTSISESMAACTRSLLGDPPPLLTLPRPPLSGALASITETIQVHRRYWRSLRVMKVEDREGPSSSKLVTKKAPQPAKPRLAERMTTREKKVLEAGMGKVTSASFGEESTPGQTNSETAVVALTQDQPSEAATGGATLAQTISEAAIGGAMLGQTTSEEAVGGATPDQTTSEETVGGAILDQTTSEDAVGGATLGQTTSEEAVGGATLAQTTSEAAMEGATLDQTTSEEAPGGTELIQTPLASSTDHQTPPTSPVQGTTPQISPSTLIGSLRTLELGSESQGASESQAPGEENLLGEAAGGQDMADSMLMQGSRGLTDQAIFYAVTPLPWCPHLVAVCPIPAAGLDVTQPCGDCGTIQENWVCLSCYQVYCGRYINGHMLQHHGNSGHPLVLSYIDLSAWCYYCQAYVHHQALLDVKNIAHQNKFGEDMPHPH
# Assay: Inhibition of HDAC6 (unknown origin)
# Settings: not given
row,pIC50,SMILES
1,6.26,COc1cc(/C=C/C(=O)NO)ccc1OCCCNC(=O)c1ccccc1O
